According to US20130115618A1, “PHOSPHOLIPID PROFILING AND CANCER” (KATHOLIEKE UNIVERSITEIT LEUVEN, priority 2010, published 2013):

Experiments:
Assay type in all cases: cell-based
[1] = system: LNCaP cells; assay: Cell death assay (trypan blue dye exclusion)
Text: At the indicated time after exposure to soraphen and/or other compounds, the adherent and floating cells were collected by trypsinization and centrifugation and both cell populations were combined.

[2] = system: LNCaP cells; assay: Lipid peroxidation product assay
Protocol: Equal amounts of cells were scraped in ice-cold PBS, kept on ice for 15 min, and then sonicated (10 bursts). After centrifugation at 3,000 g for 10 min, the supernatants were analyzed using a lipid peroxidation assay kit (Oxford Biomedical Research, Oxford, Mich.) that quantifies the amount of malondialdehydes and 4-hydroxyalkenals, which are generated from fatty acid peroxide decomposition.

[3] = system: CD36-positive cells (COS-7 transfected with pCD36); assay: CD36-binding assay
Protocol: LNCaP cells were cultured in the presence or absence of soraphen and/or palmitic acid for 72 hr. The cells were exposed to H2O2 (300 μM) for 30 min. Cells were trypsinized and labeled with Cell Tracker Dye Orange CMRA (C34551). The labeled LNCaP cells (1.5×10^5) were subsequently layered over a monolayer of COS-7 cells, which were cultured on glass coverslips and transfected with a CD36-encoding construct (pCD36) or the corresponding empty vector (pEF-BOS) (both kindly provided by R. Thorne, University of Newcastle, Australia). Cells were co-cultured in 1 ml of RPMI medium for 1 hr at 37° C. After extensive washing, the cultures were fixed and imaged. The fluorescence signal of the CellTracker Dye was measured using Adobe Photoshop software (San Jose, Calif.).

[4] = system: LNCaP cells; assay: Doxorubicin accumulation (fluorescence microscopy and fluorimetry); details: soraphen 100 nM 72 hr, doxorubicin 10 μM 30 min
Protocol: To visualize the intracellular doxorubicin accumulation, doxorubicin was added at a final concentration of 10 μM. After 30 min, the cells were analyzed using a fluorescence microscope (515 nm longpass emission filter) and the LIDA software (Leica Microsystems GmbH).
To measure doxorubicin accumulation fluorimetrically, cells were exposed to 10 μM of doxorubicin for 30 min, washed in PBS, lysed in 0.3 M HCl in 50% ethanol (v:v), and centrifuged at 700 g for 5 min. The fluorescence of doxorubicin was measured at an excitation wavelength of 490 nm and an emission wavelength of 580 nm. Where indicated, media were supplemented with palmitic acid.

[5] = system: LNCaP cells; assay: Analysis of intact phospholipid species by ESI-MS/MS; details: soraphen 100 nM, 72 hr, versus vehicle
Protocol: To prepare lipid extracts for ESI-MS/MS analysis, the tissue or cells were homogenized in 1.6 ml of 0.1 N HCl:CH3OH 1:1 (v/v). CHCl3 (0.8 ml) and 200 μg/ml of the anti-oxidant 2,6-di-tert-butyl-4-methylphenol (Sigma) were added (Milne et al., 2006). After addition of the lipid standards, the organic fractions were collected by centrifugation at 200 g for 5 min. Samples were evaporated and reconstituted in CH3OH:CHCl3:NH4OH (90:10:1.25, v/v/v) and the lipids were analyzed by electrospray ionization tandem mass spectrometry (ESI-MS/MS) on a hybrid quadrupole linear ion trap mass spectrometer (4000 QTRAP system; Applied Biosystems, Foster City, Calif.) equipped with a robotic nanoflow/ion source (Advion Biosciences). The system was operated in the MRM mode for quantification of individual species. Data were expressed as fold change relative to the control samples (untreated cells or matched normal tissue) and were presented as heatmaps using the Heatmap Builder software (Clifton Watt, Stanford University, USA).

[6] = system: LNCaP cells; assay: Doxorubicin flip-flop rate (NBD-PE quenching); details: soraphen 100 nM 72 hr, doxorubicin 10 μM, similar with verapamil 100 μM
Protocol: To measure the flip-flop rate of doxorubicin, cells were treated with soraphen or vehicle for 72 hr. During the last 24 hr of treatment, 10 μM of NBD-phosphatidylethanolamine (NBD-PE; Invitrogen) was added. Verapamil was added at a concentration of 100 μM 1 hr prior to harvesting the cells by trypsinization. The doxorubicin flip-flop rate across the plasma membrane was measured as the reduction in fluorescence of NBD due to quenching of NBD-PE by doxorubicin (Regev et al., 2005) (See Supplemental Methods for details).

[7] = system: fatty acid synthesis in LNCaP cells; assay: 2-14C-acetate incorporation assay and TLC analysis; details: soraphen 24 hours, 2-14C-acetate last 4 hours
Protocol: LNCaP cells were treated with soraphen or vehicle (ethanol) for 24 hours. The last 4 hours, 2-^14C-labeled acetate (57 mCi/mmol; 2 μCi/dish; Amersham International, Aylesbury, UK) was added to the culture medium. Lipids were extracted according to a modified Bligh-Dyer method as previously described (De Schrijver et al., 2003). To analyze the incorporation of 2-^14C-acetate into different lipid classes, TLC analysis was performed and the lipids were exposed to a PhosphorImager screen for quantification (Molecular Dynamics, Sunnyvale, Calif.), as previously described (De Schrijver et al., 2003).

COc1cccc2c1C(=O)c1c(O)c3c(c(O)c1C2=O)C[C@@](O)(C(=O)CO)C[C@@H]3O[C@H]1C[C@H](N)[C@H](O)[C@H](C)O1 [doxorubicin]
cell death ([1]; standard culture, doxorubicin 4 μM last 24 hr): 8%

CCCCCCCCCCCCCCCC(=O)O [palmitic acid]
effect on soraphen/H2O2-induced increase in lipid peroxidation products ([2]; soraphen 100 nM 72 hr, 200 μM H2O2 last 2 hr, exogenous palmitic acid 75 μM): largely reversed these changes
effect on soraphen-induced increase of CD36-bound LNCaP cells ([3]; soraphen 100 nM 72 hr, 300 μM H2O2 30 min, exogenous palmitic acid 75 μM): counteracted these effects
effect on soraphen-sensitized H2O2-induced cell death (rescue) ([1]; soraphen 100 nM 72 hr, 300 μM H2O2 last 24 hr, fatty acid supplement 75 μM): counteracted
effect on soraphen/doxorubicin-induced cell death ([1]; soraphen 100 nM, doxorubicin 4 μM, palmitic acid 75 μM): largely rescued the cells from death
effect on soraphen-induced doxorubicin accumulation ([4]; palmitic acid 75 μM): counteracted the effects of soraphen

CO[C@H]1CCCC[C@@H](c2ccccc2)OC(=O)[C@@H](C)[C@@]2(O)O[C@H]([C@@H](C)[C@H](O)[C@H]2OC)[C@@H](C)/C=C/[C@H]1OC [soraphen, Soraphen A]
decrease of PC species with one degree of unsaturation [5]: up to four-fold
effect on PC species with two unsaturations [5]: ambiguous or minor net effect
increase of PC species with more unsaturations (>three) [5]: up to eight-fold
levels of lipid peroxidation products ([2]; soraphen 100 nM, 72 hr): significantly increased
number of CD36-bound LNCaP cells ([3]; soraphen 100 nM 72 hr followed by 300 μM H2O2 for 30 min): substantially increased
increase in the flip-flop rate of doxorubicin [6]: six-fold
cell death in response to H2O2 ([1]; soraphen 100 nM 72 hr, 300 μM H2O2 last 24 hr): markedly increased
cell death ([1]; soraphen alone 100 nM 72 hr): up to 20%
intracellular accumulation of doxorubicin [4]: significant increase
inhibition of fatty acid synthesis / de novo lipogenesis by 2-14C-acetate incorporation [7]: Inhibition of fatty acid synthesis, and as such de novo lipogenesis was confirmed
